For this experiment, the system named is Staphylococcus aureus (ATCC 29213). The experiment is described as follows: Microbiostatic assay: antimicrobial effectiveness test according to USP-51, viable colony counts over 28 days. To be noted: inferred from the initial assays (7-log reduction at 0.5 ppm and above). Type of experiment: cell-based. The procedure:
To prepare stock cultures of pathogenic bacteria, 10 mL nutrient broth was inoculated using a stock culture of Staphylococcus aureus (ATCC 29213) and incubated on an orbital shaker for 24±2 hours at approximately 150 rpm at 36±1° C. This culture was used to inoculate Tryptic Soy Agar (TSA) plates. Each plate was inoculated with the culture. Each plate was incubated for up to 48 hours at 30° C. to 35° C. Following incubation, suspensions were prepared by adding growth from TSA plates into a tube containing sterile water. Each tube was then vortexed and an aliquot was serially diluted and plated onto TSA plate for further numeration. The final numeration count uses aliquot volume, count obtained on TSA plate and the total original volume of culture. […]
Each composition was tested over a seven log dilution series of pathogen bacteria assays by preparing samples containing 200 μL of a pathogenic bacteria suspension, 20 μL of an organic load, and 20,000 μL of a composition disclosed herein. […] The presence of viable bacteria was then measured by counting the number of colonies observed on the agar medium for each assay sample. Log reduction is determined by taking the log10 of the number calculated by taking the number of viable pathogenic bacteria colonies present in the assay sample without serum divided by the number of viable pathogenic bacteria colonies present in the assay sample with serum. […]

As for hypochlorous acid, the “minimum microbiocidal concentration of hypochlorous acid or free available chlorine in the disclosed compositions” value is given as “approximately 0.5 ppm”.

Source of the values: US20220323626A1, “Compositions, Kits, Methods and Uses for Preventing Microbial Growth” (Collidion, Inc., priority 2019, published 2022).
